Legend:
[1] = test system: Z-138 cells; test: Z-138 Proliferation Assay (Cell Titer Glo); assay type: cell-based; conditions: Homo sapiens, 120 h, 5 days, top concentration 20 μM
From the text: [formula] Z-138 Proliferation Assay
Z-138 suspension cells were purchased from ATCC (American Type Culture Collection, Manassas, Va.). RPMI/Glutamax medium, penicillin-streptomycin, heat inactivated fetal bovine serum were purchased from Life Technologies, Grand Island, N.Y., USA. V-bottom polypropylene 384-well plates were purchased from Greiner Bio-One, Monroe, N.C., USA. Cell culture 384-well white opaque plates were purchased from Perkin Elmer, Waltham, Mass., USA. Cell-Titer Glo® was purchased from Promega Corporation, Madison, Wis., USA. SpectraMax M5 plate reader was purchased from Molecular Devices LLC, Sunnyvale, Calif., USA.
Z-138 suspension cells were maintained in growth medium (RPMI 1640 supplemented with 10% v/v heat inactivated fetal bovine serum and cultured at 37° C. under 5% CO2. Under assay conditions, cells were incubated in assay medium (RPMI 1640 supplemented with 10% v/v heat inactivated fetal bovine serum and 100 units/mL penicillin-streptomycin) at 37° C. under 5% CO2.
For the assessment of the effect of compounds on the proliferation of the Z-138 cell line, exponentially growing cells were plated in 384-well white opaque plates at a density of 10,000 cells/ml in a final volume of 50 μl of assay medium. A compound source plate was prepared by performing triplicate nine-point 3-fold serial dilutions in DMSO, beginning at 10 mM (final top concentration of compound in the assay was 20 μM and the DMSO was 0.2%). A 100 nL aliquot from the compound stock plate was added to its respective well in the cell plate. […] After addition of compounds, assay plates were incubated for 5 days at 37° C., 5% CO2, relative humidity >90%. Cell viability was measured by quantitation of ATP present in the cell cultures, adding 35 μl of Cell Titer Glo® reagent to the cell plates. Luminescence was read in the SpectraMax M5 microplate reader. The concentration of compound inhibiting cell viability by 50% was determined using a 4-parametric fit of the normalized dose response curves.

[2] = test system: symmetric di-methyl arginine in Z-138 cells; test: Z-138 Methylation Assay (In Cell Western for symmetric di-methyl arginine and DNA content); assay type: cell-based; conditions: Homo sapiens, 96 hours incubation, read-out: ICW EC50
From the text: [formula] [formula] Where top and bottom are the normally allowed to float, but may be fixed at 100 or 0 respectively in a 3-parameter fit. The Hill Coefficient normally allowed to float but may also be fixed at 1 in a 3-parameter fit. Y is the % inhibition and X is the compound concentration. Z-138 Methylation Assay
Z-138 suspension cells were purchased from ATCC (American Type Culture Collection, Manassas, Va.). RPMI/Glutamax medium, penicillin-streptomycin, heat inactivated fetal bovine serum, and D-PBS were purchased from Life Technologies, Grand Island, N.Y., USA. Odyssey blocking buffer, 800CW goat anti-rabbit IgG (H+L) antibody, and Licor Odyssey infrared scanner were purchased from Licor Biosciences, Lincoln, Nebr., USA. Symmetric di-methyl arginine antibody was purchased from EMD Millipore, Billerica, Mass., USA. 16% Paraformaldehyde was purchased from Electron Microscopy Sciences, Hatfield, Pa., USA.
Z-138 suspension cells were maintained in growth medium (RPMI 1640 supplemented with 10% v/v heat inactivated fetal bovine serum and 100 units/mL penicillin-streptomycin) and cultured at 37° C. under 5% CO2.
Cell Treatment, in Cell Western (ICW) for Detection of Symmetric Di-Methyl Arginine and DNA Content.
Z-138 cells were seeded in assay medium at a concentration of 50,000 cells per mL to a 384-well cell culture plate with 50 μL per well. Compound (100 nL) from 384 well source plates was added directly to 384 well cell plate. Plates were incubated at 37° C., 5% CO2 for 96 hours. After four days of incubation, 40 μL of cells from incubated plates were added to poly-D-lysine coated 384 well culture plates (BD Biosciences 356697). Plates were incubated at room temperature for 30 minutes then incubated at 37° C., 5% CO2 for 5 hours. After the incubation, 40 μL per well of 8% paraformaldehyde in PBS (16% paraformaldahyde was diluted to 8% in PBS) was added to each plate and incubated for 30 minutes. Plates were transferred to a Biotek 405 plate washer and washed 5 times with 100 μL per well of wash buffer (1×PBS with 0.1% Triton X-100 (v/v)). Next 30 μL per well of Odyssey blocking buffer were added to each plate and incubated 1 hour at room temperature. Blocking buffer was removed and 20 μL per well of primary antibody was added (symmetric di-methyl arginine diluted 1:100 in Odyssey buffer with 0.1% Tween 20 (v/v)) and plates were incubated overnight (16 hours) at 4° C. Plates were washed 5 times with 100 μL per well of wash buffer. Next 20 μL per well of secondary antibody was added (1:200 800CW goat anti-rabbit IgG (H+L) antibody, 1:1000 DRAQ5 (Biostatus limited) in Odyssey buffer with 0.1% Tween 20 (v/v)) and incubated for 1 hour at room temperature. The plates were washed 5 times with 100 μL per well wash buffer then 1 time with 100 μL per well of water. Plates were allowed to dry at room temperature then imaged on the Licor Odyssey machine which measures integrated intensity at 700 nm and 800 nm wavelengths. Both 700 and 800 channels were scanned.
First, the ratio for each well was determined by:
Each plate included fourteen control wells of DMSO only treatment (minimum inhibition) as well as fourteen control wells for maximum inhibition treated with 3 μM of a reference compound (Background wells). The average of the ratio values for each control type was calculated and used to determine the percent inhibition for each test well in the plate. Reference compound was serially diluted three-fold in DMSO for a total of nine test concentrations, beginning at 3 μM. Percent inhibition was determined and IC50 curves were generated using triplicate wells per concentration of compound.

O=C1CN(c2cccc(F)c2)CCN1CC(O)CN1CCc2ccccc2C1 (stereo not shown) [Compound 6]
EC50 [1]: > 20 µM
EC50 [2]: 0.101 to 1 µM

Cc1ccc(N2CCN(CC(O)CN3CCc4ccccc4C3)C(=O)C2)cc1 (stereo not shown) [Compound 15, 1-(3-(3,4-dihydroisoquinolin-2(1H)-yl)-2-hydroxypropyl)-4-(p-tolyl)piperazin-2-one]
EC50 [1]: > 20 µM
EC50 [2]: 0.101 to 1 µM

CN(C)c1ccccc1N1CCN(C[C@H](O)CN2CCc3ccccc3C2)C(=O)C1 [Compound 29]
EC50 [1]: 10 to 50 µM
EC50 [2]: 0.101 to 1 µM

O=C1COc2ccccc2N1CC(O)CN1CCc2ccccc2C1 (stereo not shown) [Compound 31, 4-(3-(3,4-dihydroisoquinolin-2(1H)-yl)-2-hydroxypropyl)-2H-benzo[b][1,4]oxazin-3(4H)-one]
EC50 [1]: > 20 µM
EC50 [2]: 0.101 to 1 µM

O=C1CN(c2cncc(N3CCOCC3)c2)CCN1CC(O)CN1CCc2ccccc2C1 (stereo not shown) [Compound 8, 1-(3-(3,4-dihydroisoquinolin-2(1H)-yl)-2-hydroxypropyl)-4-(5-morpholinopyridin-3-yl)piperazin-2-one]
EC50 [1]: 1 to 10 µM
EC50 [2]: 0.101 to 1 µM

O=C1CN(c2ccc(Cl)cc2)CCN1CC(O)CN1CCc2ccccc2C1 (stereo not shown) [Compound 7, 4-(4-chlorophenyl)-1-(3-(3,4-dihydroisoquinolin-2(1H)-yl)-2-hydroxypropyl)piperazin-2-one]
EC50 [1]: 10 to 50 µM
EC50 [2]: 0.101 to 1 µM

O=C1CN(c2cccc3cccnc23)CCN1CC(O)CN1CCc2ccccc2C1 (stereo not shown) [Compound 4, 1-(3-(3,4-dihydroisoquinolin-2(1H)-yl)-2-hydroxypropyl)-4-(quinolin-8-yl)piperazin-2-one]
EC50 [1]: 1 to 10 µM
EC50 [2]: 0.101 to 1 µM

O=C1CN(c2cccc(N3CCOCC3)c2)CCN1CC(O)CN1CCc2ccccc2C1 (stereo not shown) [Compound 12, 1-(3-(3,4-dihydroisoquinolin-2(1H)-yl)-2-hydroxypropyl)-4-(3-morpholinophenyl)piperazin-2-one]
EC50 [1]: 1 to 10 µM
EC50 [2]: < 0.1 µM

O=C1CN(c2ccccc2Cl)CCN1CC(O)CN1CCc2ccccc2C1 (stereo not shown) [Compound 9]
EC50 [1]: 10 to 50 µM
EC50 [2]: 0.101 to 1 µM

O=c1cc(Nc2ccccc2)ccn1C[C@H](O)CN1CCc2ccccc2C1 [Compound 19, (R)-1-(3-(3,4-dihydroisoquinolin-2(1H)-yl)-2-hydroxypropyl)-4-(phenylamino)pyridin-2(1H)-one]
EC50 [1]: > 20 µM
EC50 [2]: 0.101 to 1 µM

O=C1Cc2ccccc2N1CC(O)CN1CCc2ccccc2C1 (stereo not shown) [Compound 1, 1-(3-(3,4-dihydroisoquinolin-2(1H)-yl)-2-hydroxypropyl)indolin-2-one]
EC50 [1]: > 20 µM
EC50 [2]: 0.101 to 1 µM

Source: patent US10150758B2, “PRMT5 inhibitors and uses thereof” (Epizyme, Inc., priority 2012, dated 2018)
